Results reported in US6635652B1, “Azaindolizinone derivatives and cerebral function improvers containing the same as the active ingredient” (Zenyaku Kogyo Kabushiki Kaisha, priority 1999, dated 2003).
Marks after values point to notes of the source that are not given here.

Experiments:
[1] = system: amnesia of rats induced by scopolamine; assay: Effects on scopolamine-induced amnesia (passive avoidance task, oral administration); format: in vivo; details: 60 min before retention trial, scopolamine hydrobromide 2 mg/kg i.p., passive avoidance latency, male Strague Dawley rats; for inhibition in vivo at 0.01 mg/kg / inhibition in vivo at 1 mg/kg: Rattus norvegicus, po, read-out: Inhibitory rate (%); for inhibition in vivo at 0.01 mg/kg / Inhibitory rate (%): 0.01 mg/kg p.o.; for inhibition in vivo at 1 mg/kg: 1 mg/kg p.o.
Description: Male rats of the Strague Dawley strain at 8 weeks of age (260±2 g body weight) were used for evaluation through passive avoidance task. The apparatus of passive avoidance task comprises illuminated and dark chambers which are separated from each other by a wall with a door. Floors are constituted by grids made of stainless steel; only the grid in the dark chamber is furnished with wiring for electrification.
Effected on the first and second days of testing was preparative training; each rat was placed in the illuminated chamber and left for 3 minutes to habituate to the apparatus. On the third day of testing, the rats were individually placed in the illuminated chamber and after entering the dark chamber, the door was closed and the floor grid was electrified to deliver electric shock (100 V, 0.4 mA, a period of 0.8 sec). In order to induce amnesia, scopolamine hydrobromide (2 mg/kg) was intraperitoneally injected 20 minutes before the electric shock was delivered. Retention in memory on the electric shock was tested 24 hours later; more specifically, retention in passive avoidance trial was measured in terms of a time interval (latency) from placement of each rat in the illuminated chamber to its entry into the dark chamber. The latency over 300 seconds was recorded as 300 seconds. Respective test compounds were suspended in an aqueous solution of 1% carboxymethyl cellulose and orally administered at a dose of 0.01 or 1 mg/kg 60 minutes before the trial.
Antiamnesic effects of the test compounds were evaluated by inhibitory rate (%) which is calculated by the following formula: [formula]
wherein T stands for latency and SC stands for administration of scopolamine hydrobromide. Experimental results are shown in the following table in which, as to each of the test compounds, only the dose showing higher inhibitory rate was indicated.

Structure (SMILES) | melting point | inhibition in vivo at 0.01 mg/kg [1] [%] | inhibition in vivo at 1 mg/kg [1] [%] | Inhibitory rate (%) [1]
COc1cc2c(cc1OC)C(=O)C(CC1CCN(Cc3ccccc3)CC1)C2 (racemic) [Compound C, (R,S)-1-benzyl-4-(5,6-dimethoxy-1-indanon-2-yl)-methylpiperidine, reference compound] | – | 12.5 | 24.7 | –
CC1=CC2=NC(=O)C(Cc3ccccc3)(Cc3ccccc3)N2C(C)=C1 [Compound 9, 3,3-Dibenzyl-5,7-dimethylimidazo[1,2-a]pyridin-2(3H)-one] | 237 to 238 °C | – | 66.4 | –
O=C1N=C2C(Cl)=CC(C(F)(F)F)=CN2C1(Cc1ccccc1)Cc1ccccc1 [Compound 13, 3,3-Dibenzyl-8-chloro-6-trifluoromethylimidazo[1,2-a]pyridin-2(3H)-one] | 234 to 236 °C | 57 | – | –
CC1=CC=CN2C1=NC(=O)C2(Cc1ccncc1)Cc1ccncc1 [Compound 15, 8-Methyl-3,3-bis(4-pyridylmethyl)imidazo[1,2-a]-pyridin-2(3H)-one] | 228 to 230 °C | – | – | –
O=C1N=C2C=CC=CN2C1(Cc1ccc(F)cc1)Cc1ccc(F)cc1 [Compound 16, 3,3-bis(4-Fluorobenzyl)imidazo[1,2-a]pyridin-2(3H)-one] | 290 to 292 °C | 55.4 | – | –
CN(C)c1ccc(CC2(Cc3ccc(N(C)C)cc3)C(=O)N=C3C=CC=CN32)cc1 [Compound 17, 3,3-bis(4-Dimethylaminobenzyl)imidazo[1,2-a]pyridin-2(3H)-one] | > 300 °C | 33.1 | – | –
O=C1N=C2C=CC=CN2C1(Cc1cccc(Cl)c1)Cc1cccc(Cl)c1 [Compound 18, 3,3-bis(3-Chlorobenzyl)imidazo[1,2-a]pyridin-2(3H)-one] | 271 to 272 °C | – | 58.7 | –
COc1ccc(CC2(Cc3ccc(OC)cc3)C(=O)N=C3C=CC=CN32)cc1 [Compound 19, 3,3-bis(4-Methoxybenzyl)imidazo[1,2-a]pyridin-2(3H)-one] | 248 to 251 °C | – | 64.3 | –
O=C1N=C2C=CC=CN2C1(Cc1ccc(-c2ccccc2)cc1)Cc1ccc(-c2ccccc2)cc1 [Compound 20, 3,3-bis(4-Biphenylmethyl)imidazo[1,2-a]pyridin-2(3H)-one] | – | – | – | 30.2* %
N#Cc1ccc(CC2(Cc3ccc(C#N)cc3)C(=O)N=C3C=CC=CN32)cc1 [Compound 21, 3,3-bis(4-Cyanobenzyl)imidazo[1,2-a]pyridin-2(3H)-one] | 294 °C (dec.) | 58 | – | –
O=C1N=C2C=CC=CN2C1(Cc1ccc(O)cc1)Cc1ccc(O)cc1 [Compound 22, 3,3-bis(4-Hydroxybenzyl)imidazo[1,2-a]pyridin-2(3H)-one] | 276.5 to 277.5 °C | 37.4 | – | –
C=CCC1(CC=C)C(=O)N=C2C=CC=CN21 [Compound 23, 3,3-Diallylimidazo[1,2-a]pyridin-2(3H)-one] | 64 to 66 °C | 53.6 | – | –
O=C1N=C2C=CC=CN2C12Cc1ccccc1C2 [Compound 24, Spiro[imidazo[1,2-a]pyridin-2(3H)-one-3,2′-indan]] | – | – | – | 56.8** %
C=CCC1(CC=C)C(=O)N=C2C(OCc3ccccc3)=CC=CN21 [Compound 25, 3,3-Diallyl-8-benzyloxyimidazo[1,2-a]pyridin-2(3H)-one] | 160 to 162 °C | – | – | –
O=C1N=C2C=CC=CN2C1(CCCc1ccccc1)CCCc1ccccc1 [Compound 26, 3,3-bis(3-Phenyl-1-propyl)imidazo[1,2-a]pyridin-2(3H)-one] | 227 to 228 °C | 53.5 | – | –
O=C1N=C2C=CC=CN2C12Cc1cccc3cccc(c13)C2 [Compound 27, Spiro[imidazo[1,2-a]pyridin-2(3H)-one-3,2′-[2,3]dihydrophenalene]] | – | – | – | 60.7* %
O=C1N=C2C=CC=CN2C1(Cc1ccc(F)cc1F)Cc1ccc(F)cc1F [Compound 28, 3,3-bis(2,4-Difluorobenzyl)imidazo[1,2-a]pyridin-2(3H)-one] | 269 to 271 °C | 62.7 | – | –
CC1(C)C(=O)N=C2C=CC=CN21 [Compound 33, 3,3-Dimethylimidazo[1,2-a]pyridin-2(3H)-one] | 200 to 202 °C | – | – | –
O=C1N(c2ccccc2)c2ccccc2C1(Cc1ccncc1)Cc1ccncc1 [Compound A, 3,3-bis(4-pyridylmethyl)-1-phenylindolin-2-one, reference compound] | – | 8.8 | 20.9 | –
Nc1c2c(nc3ccccc13)CCCC2 [Compound B, 9-amino-1,2,3,4-tetrahydro-acridine, reference compound] | – | 24.1 | 54.9 | –

More lines, main results first:

melting point | Structure (SMILES) | inhibition in vivo at 0.01 mg/kg [1] [%] | inhibition in vivo at 1 mg/kg [1] [%] | Inhibitory rate (%) [1]
247 to 248 °C | CC(C)OC1=CC=CN2C1=NC(=O)C2(Cc1ccccc1)Cc1ccccc1 [Compound 1, 3,3-Dibenzyl-8-isopropoxyimidazo[1,2-a]-pyridin-2(3H)-one] | – | 50.4 | –
274 to 275 °C | COC1=CC=CN2C1=NC(=O)C2(Cc1ccccc1)Cc1ccccc1 [Compound 2, 3,3-Dibenzyl-8-methoxyimidazo[1,2-a]pyridin-2(3H)-one] | – | 53 | –
236 to 237 °C | O=C1N=C2C(OCC3CC3)=CC=CN2C1(Cc1ccccc1)Cc1ccccc1 [Compound 3, 3,3-Dibenzyl-8-cyclopropylmethyloxyimidazo[1,2-a]-pyridin-2(3H)-one] | – | 47.4 | –
246 to 248 °C | O=C1N=C2C=CC(Cl)=CN2C1(Cc1ccccc1)Cc1ccccc1 [Compound 4, 3,3-Dibenzyl-6-chloroimidazo[1,2-a]pyridin-2(3H)-one] | – | 58.5 | –
214 to 215 °C | C=CCOC1=CC=CN2C1=NC(=O)C2(Cc1ccccc1)Cc1ccccc1 [Compound 5, 8-Allyloxy-3,3-dibenzylimidazo[1,2-a]pyridin-2(3H)-one] | – | 34.8 | –
240 to 241 °C | O=C1N=C2C(OCc3ccccc3)=CC=CN2C1(Cc1ccccc1)Cc1ccccc1 [Compound 6, 3,3-Dibenzyl-8-benzyloxyimidazo[1,2-a]pyridin-2(3H)-one] | 58.8 | – | –
234 to 235 °C | CC(c1ccccc1)C1(C(C)c2ccccc2)C(=O)N=C2C(OCc3ccccc3)=CC=CN21 (stereo not shown) [Compound 7, 8-Benzyloxy-3,3-bis(1-phenylethyl)imidazo[1,2-a]-pyridin-2(3H)-one] | – | – | –
268 to 269 °C | O=C1N=C2C(OC3CCCC3)=CC=CN2C1(Cc1ccccc1)Cc1ccccc1 [Compound 11, 3,3-Dibenzyl-8-cyclopentyloxyimidazo[1,2-a]pyridin-2(3H)-one] | – | 48 | –
260 to 261 °C | O=C1N=C2C(Cl)=CC(Cl)=CN2C1(Cc1ccccc1)Cc1ccccc1 [Compound 12, 3,3-Dibenzyl-6,8-dichloroimidazo[1,2-a]pyridin-2(3H)-one] | – | – | –
233 to 235 °C | Cc1cccc(CC2(Cc3cccc(C)c3)C(=O)N=C3C(OCc4ccccc4)=CC=CN32)c1 [Compound 14, 8-Benzyloxy-3,3-bis(3-methylbenzyl)imidazo[1,2-a]pyridin-2(3H)-one] | – | 56.7 | –
